Among the data in PubChem BioAssay AID179 (DTP/NCI, 2004) are outcome, EC50 and IC50 values, retold here.

Active and inactive are the calls of the source.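 Rule for the calls: active = compounds giving half or more protection of infected cells from virus-caused growth loss, again on retest; inactive = the rest.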 Where only a bound is given, the exact number is not on record here.

This assay concerns CEM cells HIV-1 protection, formazan growth assay. Description: NCI AIDS Antiviral Assay. The settings on record: for IC50: measured here: growth of uninfected CEM cells. Put shortly: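 Soluble formazan readout of cell growth; CEM cells ± HIV-1; 5 drug concs. ≥50% protection → retest; ≥50% again = moderately active; reproducible 100% = confirmed active.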

In the case of `NC(CCC(=O)NC(CSSCCCCS(=O)O)C(=O)NCC(=O)O)C(=O)O` (configuration not stated), the outcome was inactive.

With `CC(=O)C(CN1CCOCC1)C(c1ccccc1)c1c(O)c2ccccc2oc1=O` (configuration not stated), the EC50 is greater than 89.1 µM and the half-maximal inhibitory concentration (IC50) was found to be 55 µM.

Consider `COc1ccc(C(=O)NO)cc1`, for which the EC50 is greater than 200 µM and the IC50 came to 25.1 µM.

Regarding `CCC(=O)O[C@@H]1C2C(OC(C)=O)C34COC(C)([C@@H]3C3C(C[C@]3(C)OC(C)=O)[C@@H](OC(=O)c3ccccc3)C4=O)[C@H](OC(C)=O)[C@@]2(OC(C)=O)C[C@@H]1C` (some centres not stated), the EC50 is greater than 10 µM and the IC50 was greater than 10 µM.

Take `CN(C)CCNC(=O)Cc1ccccc1Nc1c(Cl)cccc1Cl`: the EC50 is greater than 200 µM and the IC50 came out at 30.2 µM.

Regarding `O=c1/c(=C/c2cccc3ccccc23)sc2nc3ccccc3n12`, the EC50 is greater than 30.2 µM and the IC50 is greater than 30.2 µM.

Consider `Cc1ccc(NC(=O)C(=O)C2C(=O)NC(=O)NC2=O)cc1C`, for which the EC50 is greater than 117 µM and the half-maximal inhibitory concentration (IC50) was greater than 117 µM.

As for `CCOC(=O)c1cnccc1CC1(C#N)c2ccccc2C=CN1C(=O)c1ccccc1` (configuration not stated), the EC50 is greater than 200 µM and the half-maximal inhibitory concentration (IC50) came to 17.8 µM.

In the case of `O=c1oc2ccccc2c(O)c1/C=N\c1nc(-c2ccccc2)cs1`, the EC50 was greater than 200 µM and the half-inhibitory concentration (IC50) amounted to 3.39 µM.

With `O=S(=O)(c1ccc(Cl)cc1)S(=O)(=O)c1ccc(Cl)cc1`, the EC50 was 10.7 µM and the IC50 was determined as 26.9 µM.

Turning to `CCCCC1(C(=O)OCC)SCCCS1`, the EC50 is greater than 75.9 µM and the IC50 is greater than 75.9 µM.

As to `N=C1C(=N)c2ccccc2-c2ccccc21.N=C1C(=N)c2ccccc2-c2ccccc21.[Cl-].[Rh+3].c1ccc(-c2ccccn2)nc1`, the result was inactive.

`CC(=O)Nc1ccc(S(=O)(=O)N/N=C/c2ccco2)cc1`: the EC50 was greater than 589 µM and the IC50 worked out at 309 µM.

`C=C(C)C(C)(C)n1[nH]c(=O)n(-c2ccccc2)c1=O`: the EC50 was greater than 200 µM and the 50% inhibitory concentration (IC50) is greater than 200 µM.

For `O=C(O)c1ccc(C2C3C=CC(C3)C2[N+](=O)[O-])cc1` (configuration not stated), the EC50 was greater than 347 µM and the half-inhibitory concentration (IC50) is greater than 347 µM.

For `COc1ccc(C2OC[C@H]3O[C@@H](OCc4ccccc4)[C@H](O)[C@@H](O)[C@@H]3O2)cc1` (some centres not stated), the EC50 is greater than 200 µM and the IC50 is 35.5 µM.

Turning to `O=C1NN(Cc2ccccc2)C(=O)N2CCC[C@@H]12`, the EC50 is greater than 200 µM and the half-maximal inhibitory concentration (IC50) was greater than 200 µM.

`CCCCCCCCCCCCCCCC(=O)NCC(COP(=O)([O-])OCC[N+](C)(C)C)OCC` (configuration not stated): the result was inactive.

`CC[C@@]12CCC(=S)N(CCSc3ccccc3)[C@@H]1c1c(n(S(=O)(=O)c3ccc(OC)cc3)c3ccccc13)CC2`: the EC50 is greater than 200 µM and the IC50 is greater than 200 µM.

`C=CCN1C(=O)CS/C1=N/NC(=O)C(O)(c1ccccc1)c1ccccc1`: the EC50 is greater than 200 µM and the IC50 worked out at 129 µM.

With `CCc1cccc(C)c1NC(=O)CCc1nnc2s/c(=C\c3cccc4ccccc34)c(=O)n12`, the EC50 was greater than 200 µM and the IC50 was 191 µM.

As for `Cc1ccc(S(=O)(=O)C(CC(=O)N2CCCC2)C(=O)c2ccccc2)cc1` (configuration not stated), the EC50 is greater than 93.3 µM and the IC50 turned out to be 15.5 µM.

On to `NC(=O)C(=CNc1nc(-c2ccc(Cl)c(Cl)c2)cs1)C(N)=O`, for which the EC50 was greater than 200 µM and the IC50 is 102 µM.

Turning to `COc1ccc2c(c1)[n+](=O)c(C(=O)C/C(=N/OCCCc1ccccc1)C(=O)NC13CC4CC(CC(C4)C1)C3)c(C)n2[O-]`, the EC50 is greater than 39.8 µM and the IC50 is greater than 39.8 µM.

For the molecule `CC(=O)OC1CC2C(=O)CC1(C)C2(C)C` (configuration not stated), the EC50 is greater than 200 µM and the IC50 is greater than 200 µM.

In the case of `O=C1OC(c2ccccc2)=N/C1=C\c1cc(Cl)ccc1Cl`, the EC50 is greater than 6.31 µM and the IC50 is greater than 6.31 µM.

As for `O=P(O)(O)CN1CCNCCN(CP(=O)(O)O)CCN(CP(=O)(O)O)CCNCC1`, the EC50 was greater than 100 µM and the IC50 came out at 64.6 µM.

`CC(=O)[O-].COc1cccc(/C=N\[N-]C(=O)c2ccncc2)c1.[Co+2].[OH3+].[OH3+].c1ccncc1`: the EC50 is greater than 100 µM and the IC50 is 57.5 µM.

Turning to `CN=c1sc2nc(C#N)c(C#N)nc2n1C`, the EC50 was greater than 200 µM and the concentration for half-maximal inhibition (IC50) is 10.2 µM.

In the case of `O=C1NC(=O)/C(=C/c2ccc(F)cc2)N1`, the EC50 was greater than 200 µM and the IC50 was 191 µM.

Turning to `CCOP(=O)(OCC)/C(C#N)=C/c1c[nH]c2ccccc12`, the EC50 was greater than 200 µM and the IC50 came out at 178 µM.

With `O=C(O)CC[C@]1(C(=O)O)NC(C(=O)O)Cc2[nH]cnc21` (some centres not stated), the EC50 was greater than 891 µM and the 50% inhibitory concentration (IC50) was greater than 891 µM.

`COc1cc(/C=C2\SC(=S)N(/C=C3\C(=O)C=C(C)OC3=O)C2=O)cc(OC)c1OC`: the EC50 was greater than 200 µM and the IC50 amounted to 18.2 µM.

As for `CCOC(=O)C1=C(C)N(C2OC(COC(C)=O)C(OC(C)=O)C(OC(C)=O)C2OC(C)=O)C(=O)NC1c1ccccc1` (configuration not stated), the EC50 is greater than 31.6 µM and the half-inhibitory concentration (IC50) was greater than 31.6 µM.

For the molecule `COc1ccc(/C=C2/SC(=S)NC2=O)c(OC)c1OC`, the EC50 is greater than 200 µM and the IC50 is 7.76 µM.

As for `N=C(N)SCN1C(=O)c2ccccc2C1=O`, the EC50 is greater than 200 µM and the half-inhibitory concentration (IC50) is greater than 200 µM.

As to `O=C1CC2C=C(S(=O)(=O)c3ccccc3)C1N(Cc1ccccc1)C2=O` (configuration not stated), the outcome was inactive.

Consider `Clc1cccc2c(N3CC3)cnnc12`, for which the outcome was inactive.

For the molecule `CN(c1c(Cl)cccc1Cl)S(=O)(=O)c1ccccc1[N+](=O)[O-]`, the EC50 was greater than 200 µM and the 50% inhibitory concentration (IC50) was 66.1 µM.

For the molecule `O=C1OCCN(c2cccc(Cl)c2)CCO1`, the outcome was inactive.

`CCCC(C)C[C@@H](C)CC(C)/C=C(\C)c1oc(=O)c(C)c(O)c1C` (some centres not stated) (tested in a mixture with another compound): the result was inactive.

For the molecule `Cc1ccc(S(=O)OCc2c(C)c(C)c(COS(=O)c3ccc(C)cc3)c(C)c2C)cc1` (configuration not stated), the outcome was inactive.

As for `CCOC(=O)C1=CN(Cc2ccccc2)C2ON=C(c3ccc(Cl)cc3)C2C1` (configuration not stated), the EC50 was greater than 200 µM and the IC50 stood at 31.6 µM.

As for `CCOCC1c2ccccc2CCN1Cc1c[nH]c2ccccc12` (configuration not stated), the EC50 is greater than 200 µM and the half-inhibitory concentration (IC50) amounted to 19.5 µM.

Turning to `CCOP(=O)(OCC)/C(=C\n1c(=S)[nH]c2cc(C)ccc21)C(=O)OC`, the EC50 was greater than 200 µM and the IC50 was greater than 200 µM.

Turning to `COc1ccc(C=C2C(=O)c3ccccc3C2=O)cc1`, the result was inactive.

On to `C#Cc1cc(CN(CC(=O)OC(C)(C)C)CC(=O)OC(C)(C)C)nc(CN(CC(=O)OC(C)(C)C)CC(=O)OC(C)(C)C)c1`, for which the EC50 is greater than 11.5 µM and the half-inhibitory concentration (IC50) was 0.204 µM.

As for `CC1OC(OC23C(=O)CC(C)(O)CC2(O)C=CC2=C3C(=O)c3ccc(C4CC(OC5CCC(OC6CC(O)C(O)C(C)O6)C(C)O5)C(O)C(C)O4)c(O)c3C2=O)CCC1O` (configuration not stated), the EC50 was greater than 295 µM and the half-inhibitory concentration (IC50) came to 4.9 µM.

As for `Cc1nc2ccc(S(=O)(=O)Nc3ccc(Cl)cc3)cc2c(=O)n1NC(=O)CNc1ccc(Cl)cc1`, the EC50 was greater than 200 µM and the IC50 was greater than 200 µM.

Regarding `O=CC12C3CCC1C2C(=O)C3` (configuration not stated), the outcome was inactive and the 50% inhibitory concentration (IC50) was greater than 200 µM.

As for `Cc1cccc2c3c(ccc12)C(=O)OC3=O`, the outcome was inactive.

For `Cc1ccc(S(=O)(=O)OC2C(C)OCOC3COCOC32)cc1` (configuration not stated), the EC50 was greater than 145 µM and the concentration for half-maximal inhibition (IC50) was greater than 145 µM.

In the case of `CN(C)C=NCc1ccc2c(c1)OCO2`, the EC50 is 51.3 µM and the half-maximal inhibitory concentration (IC50) is 479 µM.

For `S=c1[nH]nc(-c2ccccc2)n1/N=C\c1ccc(-c2ccc(Cl)cc2)o1`, the EC50 is greater than 5.25 µM and the IC50 was greater than 5.25 µM.

With `COc1ccc2cc1Oc1ccc(cc1)C[C@@H]1c3cc(c(OC)cc3CCN1C)Oc1c(O)c(OC)cc3c1CCN(C)C3C2` (some centres not stated), the result was inactive.

In the case of `COC(=O)C(=O)C(C(=O)C(=O)Nc1ccccc1C(N)=O)c1nc2ccc(C(=O)c3ccccc3)cc2[nH]c1=O` (configuration not stated), the EC50 is greater than 240 µM and the IC50 is 63.1 µM.

For `N#C/C(=C\N1CCNC1=S)C(=O)c1ccc2ccccc2c1`, the EC50 was greater than 200 µM and the half-maximal inhibitory concentration (IC50) came to 151 µM.

For the molecule `COc1cc(C(=O)C/C(CCC(=O)Nc2ccccc2[N+](=O)[O-])=N\NC(=O)C(N)=O)ccc1O`, the EC50 was greater than 145 µM and the IC50 is greater than 145 µM.

For `CN1C2c3ccccc3C3C4c5ccccc5C(C31)C(C2[N+](=O)[O-])N4C` (configuration not stated), the EC50 is greater than 43.7 µM and the IC50 amounted to 27.5 µM.

With `CC(C)[C@@H]1CC[C@@H](C)C[C@H]1OC(=O)/C=C1/C2C=CC(O2)C1C(=O)O[C@@H]1C[C@H](C)CC[C@H]1C(C)C` (some centres not stated), the EC50 was greater than 200 µM and the 50% inhibitory concentration (IC50) was greater than 200 µM.

Take `O=[N+]([O-])c1ccc(-c2cc(O)c3nc4ccccc4n3c2)cc1`: the EC50 was 178 µM and the half-inhibitory concentration (IC50) was greater than 200 µM.

Take `CCOc1ccc(-c2coc3cc(C)c(OCC)c(C)c3c2=O)cc1`: the EC50 is greater than 200 µM and the concentration for half-maximal inhibition (IC50) was greater than 200 µM.

Consider `COc1ccc(-n2cnc3c(NC(Cc4ccccc4)C(=O)O)ncnc32)cc1` (configuration not stated), for which the EC50 was greater than 200 µM and the IC50 turned out to be 2 µM.

For the molecule `CC(C)NC(=O)NCCc1c[nH]c2ccccc12`, the EC50 is greater than 200 µM and the half-inhibitory concentration (IC50) is greater than 200 µM.

On to `Cc1nc2c(=O)n(C)c(=O)n(C)c2nc1CCC(=O)O`, for which the EC50 was greater than 200 µM and the IC50 is greater than 200 µM.

Take `O=c1oc2cc(O)ccc2c(O)c1C(c1ccc2ccccc2c1)c1c(O)c2ccc(O)cc2oc1=O`: the outcome was inactive.

On to `COC1=C(C)C(=O)C(=O)c2ccccc21`, for which the outcome was inactive.

As to `CC(=O)O[C@]12CCCCC1C1(O)C(O)CCCCC12` (some centres not stated), the EC50 is greater than 200 µM and the IC50 is greater than 200 µM.

`O=C(O)c1c(O)c2cc(Br)ccc2oc1=O`: the EC50 was greater than 200 µM and the half-maximal inhibitory concentration (IC50) was found to be 120 µM.

Regarding `O=c1oc2ccccc2c(O)c1C(C/C(CCN1CCCC1)=N\Nc1ccccc1)c1ccccc1` (configuration not stated), the EC50 is greater than 97.7 µM and the IC50 was 41.7 µM.

Broadly, the EC50 is the concentration giving half of the maximal effect. The term IC50 denotes the midpoint of a concentration-inhibition curve. Low values mean higher potency, high ones lower potency.
